These results are taken from ChEMBL document CHEMBL1159233, “Antitumor agents, 154. Cytotoxic and antimitotic flavonols from Polanisia dodecandra” (J Nat Prod, 1995).

Each structure is given as a SMILES string. Values after ≈ are worked out from the molar mass of the structure shown. Active and inactive are the calls of the source. The calls are words filed in the database; no cut-off is given here.

For assay [1], the system named is KB. Nature of the assay: Cytotoxicity against human KB cells. It counts as functional. Particulars: read-out: ED50 (the source's name).
Assay [2] has as its system A549. The assay is described as follows: Cytotoxicity against human A549 cells. It counts as functional.
Assay [3] deals with HCT-8. The assay is described as follows: Cytotoxicity against human HCT8 cells. It counts as functional.
For assay [4], the system named is P388. The assay is described as follows: Cytotoxicity against mouse P388 cells. It counts as functional. Particulars: read-out: ED50 (the source's name).
The nature of assay [5]: Cytotoxicity against human PRMI7951 cells. It counts as functional. Particulars: read-out: ED50 (the source's name).
Assay [6] concerns TE-671. Nature of the assay: Cytotoxicity against human TE671 cells. It counts as functional. To be noted: read-out: ED50 (the source's name).
Assay [7] concerns HL-60(TB). Nature of the assay: Growth inhibition of human HL-60(TB) cells. The assay is classed as functional.
For assay [8], the system named is SR. Nature of the assay: Growth inhibition of human SR cells. It counts as functional.
For assay [9], the system named is HOP-62. Nature of the assay: Growth inhibition of human HOP62 cells. The assay is classed as functional.
For assay [10], the system named is NCI-H226. The assay is described as follows: Growth inhibition of human NCI-H226 cells. It counts as functional.
The test system of assay [11] is NCI-H460. Nature of the assay: Growth inhibition of human NCI-H460 cells. It counts as functional.
Assay [12] concerns NCI-H522. The assay is described as follows: Growth inhibition of human NCI-H522 cells. The assay is classed as functional.
Assay [13] is described as follows: Growth inhibition of human DMS144 cells. It counts as functional.
Assay [14] relates to HCT-116. Nature of the assay: Growth inhibition of human HCT116 cells. The assay is classed as functional.
The subject of assay [15] is SF-268. The assay is described as follows: Growth inhibition of human SF268 cells. The assay is classed as functional.
Assay [16] deals with SF-539. Nature of the assay: Growth inhibition of human SF539 cells. The assay is classed as functional.
For assay [17], the system named is SNB-75. Nature of the assay: Growth inhibition of human SNB75 cells. It counts as functional.
Assay [18] concerns U-251. Nature of the assay: Growth inhibition of human U251 cells. It counts as functional.
Assay [19] concerns SK-MEL-5. Nature of the assay: Growth inhibition of human SK-MEL-5 cells. It counts as functional.
In assay [20] the test system is OVCAR-3. Nature of the assay: Growth inhibition of human OVCAR-3 cells. The assay is classed as functional.
Assay [21] relates to SK-OV-3. The assay is described as follows: Growth inhibition of human SKOV3 cells. The assay is classed as functional.
Assay [22] concerns UO-31. Nature of the assay: Growth inhibition of human UO31 cells. It counts as functional.
A short description of assay [23]: Inhibition of tubulin polymerization.
The nature of assay [24]: Displacement of [3H]colchicine from tubulin at 5 uM. In general terms: In a radioligand displacement assay an active substance lowers the binding of a labelled ligand.
The nature of assay [25]: Displacement of [3H]colchicine from tubulin at 50 uM.
[26] abbreviates: read-out: ED50 (the source's name).

As to `COc1ccc(-c2oc3c(OC)c(OC)c(OC)c(O)c3c(=O)c2OC)cc1O`, the EC50 in assay [1] came out at 0.045 µg/mL (≈ 0.111 µM); in assay [2] (setting [26]), 0.6 µg/mL (≈ 1.48 µM); in assay [3] (setting [26]), 4.4 µg/mL (≈ 10.9 µM); in assay [4] it was 0.055 µg/mL (≈ 0.136 µM); in assay [5] it was 0.55 µg/mL (≈ 1.36 µM); in [6], 0.069 µg/mL (≈ 0.171 µM). Also, the 50% growth inhibitory concentration (GI50) (usually the concentration giving 50% growth inhibition) in assay [7] is below 0.01 µM; in assay [8], below 0.01 µM; in [9], 0.0479 µM; in assay [10], 0.0617 µM; in assay [11] it was below 0.01 µM; in assay [12] it was below 0.01 µM. The GI50 in [13], in [14], in [15], in assay [16], in assay [17] and in [18] was below 0.01 µM each time. In addition, the GI50 in [19], in [20], in [21] and in assay [22] was below 0.01 µM in each case. Besides, the TGI in [7] (read-out: pTGI) is below 0.01 µM; in assay [8] (read-out: pTGI (converted)) it was 0.112 µM; in [9] (read-out: pTGI (converted)), 4.79 µM; in assay [10] (read-out: pTGI (converted)), 0.363 µM; in [11] (read-out: pTGI (converted)), 0.138 µM; in [12] (read-out: pTGI), below 0.01 µM. Further, the TGI is below 0.01 µM in assay [13] (read-out: pTGI); 0.123 µM in assay [14] (read-out: pTGI (converted)); 2.82 µM in [15] (read-out: pTGI (converted)); below 0.01 µM in assay [16] (read-out: pTGI); below 0.01 µM in [17] (read-out: pTGI); 0.229 µM in assay [18] (read-out: pTGI (converted)). Also, the TGI was 1 µM in assay [19] (read-out: pTGI (converted)), below 0.01 µM in assay [20] (read-out: pTGI), 0.417 µM in assay [21] (read-out: pTGI (converted)) and 5.75 µM in [22] (read-out: pTGI (converted)). Besides, inhibition in assay [23] was half-maximal at 0.83 µM (IC50). For the same compound, the values for the Activity in assay [24] and in [25] were 59% and 89%, respectively.
For `COc1ccc(-c2oc3cc(O)c(OC)c(O)c3c(=O)c2OC)cc1O` [CENTAUREIDIN], inhibition in assay [23] was half-maximal at 2 µM (IC50). The Activity turned out to be 35% in assay [24] and 76% in [25].
In assay [24], `COc1cc([C@@H]2c3cc4c(cc3[C@H](O)[C@H]3COC(=O)[C@H]23)OCO4)cc(OC)c1OC` had an Activity of 82%.
With `COc1cc(-c2oc3c(OC)c(OC)c(OC)c(O)c3c(=O)c2OC)ccc1O`, the EC50 in assay [1] is 8.38 µg/mL (≈ 20.7 µM); in assay [4], 6.52 µg/mL (≈ 16.1 µM); in assay [5], 5.93 µg/mL (≈ 14.7 µM); in assay [6], 0.98 µg/mL (≈ 2.42 µM). Besides, the result in assay [2] and in assay [3] was inactive.
